Assay results as given in US20040242537A1, “Acetylation method of chitosan” (priority 2001, published 2004).

Conditions: pH 7

chitosan
solubility according to pH: rapid decrease in solubility
